We go through 15 molecules from US6464980B1, “MAGE-1 c-terminal immunogenic peptides” (Epimmune Inc., priority 1993, dated 2002).

For test [1], the target named is HLA-A3 class I molecule (Homo sapiens, UniProt P04439). As to the kind of experiment: class I binding assay, HLA-A3. The following applies: Table 2 MAGE CTL targets, column A3; unit not given. Here is the method:
(§1) Peptides comprising the CTL epitopes are synthesized and the ability to bind appropriate MHC molecules is determined in assays using, for example, purified class I molecules and radioiodinated peptides and/or cells expressing empty class I molecules by, for instance, immunofluorescent staining and flow microfluorimetry, peptide-dependent class I assembly assays, and inhibition of CTL recognition by peptide competition. Those peptides that bind to the class I molecule are further chosen for their ability to serve as targets for CTLs derived from afflicted individuals, as well as for their capacity to induce primary in vitro or in vivo CTL responses that can give rise to CTL populations capable of reacting with tumor cells as therapeutic agents. Methods for determining allele-specific peptides and peptide motifs are described in co-pending commonly owned applications U.S. Ser. No. 027,146 and U.S. Ser. No. 027,746, which are incorporated herein by reference.
(§2) These peptides were then evaluated as to their capacity to bind to the appropriate class I molecules using specific binding assays as described in copending and commonly owned application U.S. Ser. No. 08/027,746, incorporated herein by reference.

Test [2] deals with HLA-A11 class I molecule. In words: class I binding assay, HLA-A11. Also noted: species or system human. The settings on record: Table 2 MAGE CTL targets, column A11; unit not given. Here is the method:
as §1, §2

The test system of test [3] is HLA-A1 class I molecule. As to the kind of experiment: class I binding assay, HLA-A1. Also noted: species or system human. The settings on record: Table 2 MAGE CTL targets, column A1; unit not given. The procedure:
as §1, §2

The test system of test [4] is HLA-A24 class I molecule. In words: class I binding assay, HLA-A24. Also noted: species or system human. The settings on record: Table 2 MAGE CTL targets, column A24; unit not given. The procedure:
as §1, §2

Test [5] deals with HLA-A2 class I molecule (Homo sapiens, UniProt P04439, D140Y/D185E/D98H/E176V/E277Q/G131W/G231S/I119V/I121R/I166T/I218V/L300P/L318F/N151K/N90K/P208A/P217A/Q86G/Q94H/R138H/R169H/T345S). In words: class I binding assay, HLA-A2. The settings on record: Table 2 MAGE CTL targets, column A2; unit not given. The procedure: as §1, §2
Test [6] has as its target HLA-A24.1 class I molecule (human). As to the kind of experiment: class I binding assay as described in U.S. Ser. No. 08/027,746; format not described here.
The target in test [7] is HLA-A1 class I molecule (human). Described as above.

Consider “TSYVKVLEY [Id 1072.36, MAGE-1 C-terminal peptide, position 275,9-mer, motif A03/11]”, for which the “A3 (binding to class I molecule)” value in test [1] came out at 0.7100. For the same molecule, the “A11 (binding to class I molecule)” value in test [2] worked out at 0.0100.
The like results for “RVRFFFPSLR [Id 1072.37, MAGE-1 C-terminal peptide, position 290, 10-mer, motif A03/11]” were, in that order, 0.4300 and 0.0089.
The like results for “LVQEKYLEY [Id 1072.42, MAGE-1 peptide, position 243,9-mer, motif A11]” were, in that order, 0.0026 and 0.0340.
As to “ALAETSYVK [Id 1072.38, MAGE-1 C-terminal peptide, position 271,9-mer, motif A03/11]”, in test [1], the “A3 (binding to class I molecule)” value is 0.3100. For the same molecule, the “A11 (binding to class I molecule)” value in test [2] amounted to 0.3600.
In the same order, the values of “DLVQEKYLEY [1072 40, MAGE-1 peptide, position 242, 10-mer, motif A03]” are 0.0320 and 0.0051.
On to “ETSYVKVLEY [Id 1072.28, MAGE-1 C-terminal peptide, position 274, 10-mer, motif A01/11]”, for which, in test [3], the “A1 (binding to class I molecule)” value is reported as 0.5600.
Turning to “TSYVKVLEY [Id 1072.29, MAGE-1 C-terminal peptide, position 275,9-mer, motif A01/11]”, in test [3], the “A1 (binding to class I molecule)” value stood at 0.0990.
Consider “YVIKVSARVR [Id 1072.41, MAGE-1 C-terminal peptide, position 283, 10-mer, motif A03]”, for which, in test [1], the “A3 (binding to class I molecule)” value is reported as 0.0190. Further, in test [2], the “A11 (binding to class I molecule)” value is reported as 0.0009.
Regarding “SYVKVLEYVI [Id 1072.43, MAGE-1 C-terminal peptide, position 276, 10-mer, motif A24]”, the “A24 (binding to class I molecule)” value in test [4] is reported as 0.0360.
As to ALAETSYVKV [Id 1072.33], the “A2 (binding to class I molecule)” value in test [5] turned out to be 0.0150.
Still for that read-out and setting: the same measure for YVIKVSARV [Id 1072.34]: 0.0140.
For the molecule “RALAETSYVK (RALAETSYVKVK) [Id 1072.39, MAGE-1 C-terminal peptide, position 270, 10-mer, motif A03/11]”, in test [1], the “A3 (binding to class I molecule)” value is listed as 0.1800. In addition, the “A11 (binding to class I molecule)” value in test [2] is reported as 0.2400.
Molecule SYVKVLEYVI showed a binding value under column A24 (quantity not explained) in test [6] of 0.036.
The molecule TSYVKVLEY yielded a binding value under column A1 (quantity not explained) in test [7] of 0.099.
Still for that read-out and setting: the same measure for ETSYVKVLEY: 0.56.
